Data taken from PubChem BioAssay AID1918999 (Molecular Pharmacology Branch, DTP, NCI, 2023).

Test system: 556581-035-R-J1-PDC complex spheroid growth
Test: Anticancer human tumor 556581-035-R-J1-PDC patient-derived ovarian carcinoma cell line growth inhibition [AhR]
Conditions: for IC50: curve of first compound; for viability, T/C: stronger effect = lower value
Outline: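 Agents were dosed in half-log steps down from roughly clinical Cmax, or from 10 microM where Cmax was unknown, alone and with AhR antagonists. Read-out: percent test/control growth of tumor spheroids containing HUVEC and MSC stromal cells.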

[1] = second compound 0.1 µM, first compound 0.0316 µM
[2] = second compound 0.1 µM, first compound 0.1 µM
[3] = second compound 0.1 µM, first compound 0.316 µM
[4] = second compound 0.1 µM, first compound 1 µM
[5] = second compound 0.316 µM, first compound 0.0316 µM
[6] = second compound 0.316 µM, first compound 0.1 µM
[7] = second compound 0.316 µM, first compound 0.316 µM
[8] = second compound 0.316 µM, first compound 1 µM
[9] = second compound 1 µM, first compound 0.0316 µM
[10] = second compound 1 µM, first compound 0.1 µM
[11] = second compound 1 µM, first compound 0.316 µM
[12] = second compound 1 µM, first compound 1 µM
[13] = second compound 3.16 µM, first compound 0.0316 µM
[14] = second compound 3.16 µM, first compound 0.1 µM
[15] = second compound 3.16 µM, first compound 0.316 µM
[16] = second compound 3.16 µM, first compound 1 µM
[17] = second compound 10 µM, first compound 0.0316 µM
[18] = second compound 10 µM, first compound 0.1 µM
[19] = second compound 10 µM, first compound 0.316 µM
[20] = second compound 10 µM, first compound 1 µM
[21] = second compound 0.1 µM, first compound 3.16 µM
[22] = second compound 0.1 µM, first compound 10 µM
[23] = second compound 0.316 µM, first compound 3.16 µM
[24] = second compound 0.316 µM, first compound 10 µM
[25] = second compound 1 µM, first compound 3.16 µM
[26] = second compound 1 µM, first compound 10 µM
[27] = second compound 3.16 µM, first compound 3.16 µM
[28] = second compound 3.16 µM, first compound 10 µM
[29] = second compound 10 µM, first compound 3.16 µM
[30] = second compound 10 µM, first compound 10 µM
[31] = second compound 0.1 µM, first compound 0.00949 µM
[32] = second compound 0.1 µM, first compound 0.03 µM
[33] = second compound 0.1 µM, first compound 0.0949 µM
[34] = second compound 0.1 µM, first compound 0.3 µM
[35] = second compound 0.316 µM, first compound 0.00949 µM
[36] = second compound 0.316 µM, first compound 0.03 µM
[37] = second compound 0.316 µM, first compound 0.0949 µM
[38] = second compound 0.316 µM, first compound 0.3 µM
[39] = second compound 1 µM, first compound 0.00949 µM
[40] = second compound 1 µM, first compound 0.03 µM
[41] = second compound 1 µM, first compound 0.0949 µM
[42] = second compound 1 µM, first compound 0.3 µM
[43] = second compound 3.16 µM, first compound 0.00949 µM
[44] = second compound 3.16 µM, first compound 0.03 µM
[45] = second compound 3.16 µM, first compound 0.0949 µM
[46] = second compound 3.16 µM, first compound 0.3 µM
[47] = second compound 10 µM, first compound 0.00949 µM
[48] = second compound 10 µM, first compound 0.03 µM
[49] = second compound 10 µM, first compound 0.0949 µM
[50] = second compound 10 µM, first compound 0.3 µM
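Wherever viability, T/C is given: compound exposure lasted 7 days; 100% = DMSO vehicle control growth.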

`CC1COCCN1c1cc(-c2ccnn2C)c2ccnc(-c3ccn[nH]3)c2n1` (stereo not given) + Cc1ccccc1N=Nc1ccc(NC(=O)c2ccnn2C)c(C)c1 was tested, and the IC50 (second compound 0.1 µM) was 0.894 µM, the IC50 (second compound 0.316 µM) was > 1 µM and the IC50 (second compound 1 µM) was > 1 µM. For the same compound, the IC50 (second compound 3.16 µM) was 0.752 µM, the IC50 (second compound 10 µM) was 0.883 µM and the viability, T/C (second compound 0.1 µM, first compound 0.00316 µM) was 104%. It also gave a viability, T/C (second compound 0.1 µM, first compound 0.01 µM) of 103%, a viability, T/C [1] of 101% and a viability, T/C [2] of 84.8%. The viability, T/C [3] was 61.5%, the viability, T/C [4] was 48.6% and the viability, T/C (second compound 0.316 µM, first compound 0.00316 µM) was 102%. The viability, T/C (second compound 0.316 µM, first compound 0.01 µM) was 119%, the viability, T/C [5] was 101% and the viability, T/C [6] was 76.8%. The viability, T/C [7] was 63.9%, the viability, T/C [8] was 51.8% and the viability, T/C (second compound 1 µM, first compound 0.00316 µM) was 99.6%. For the same compound, the viability, T/C (second compound 1 µM, first compound 0.01 µM) was 108%, the viability, T/C [9] was 99.5% and the viability, T/C [10] was 80%. It also gave a viability, T/C [11] of 62.6%, a viability, T/C [12] of 54.9% and a viability, T/C (second compound 3.16 µM, first compound 0.00316 µM) of 105%. For the same compound, the viability, T/C (second compound 3.16 µM, first compound 0.01 µM) was 103%, the viability, T/C [13] was 94.8% and the viability, T/C [14] was 72.6%. The viability, T/C [15] was 63.8%, the viability, T/C [16] was 45.4% and the viability, T/C (second compound 10 µM, first compound 0.00316 µM) was 88.9%. It also gave a viability, T/C (second compound 10 µM, first compound 0.01 µM) of 104%, a viability, T/C [17] of 85.3% and a viability, T/C [18] of 73.3%. It also gave a viability, T/C [19] of 61% and a viability, T/C [20] of 47.9%.
In the case of `CC1COCCN1c1cc(C2(S(C)(=N)=O)CC2)nc(-c2ccnc3[nH]ccc23)n1` (stereo not given) + Cc1ccccc1N=Nc1ccc(NC(=O)c2ccnn2C)c(C)c1, the IC50 (second compound 0.1 µM) is reported as > 10 µM, the IC50 (second compound 0.316 µM) is reported as > 10 µM and the IC50 (second compound 1 µM) is reported as > 10 µM. The IC50 (second compound 3.16 µM) was > 10 µM, the IC50 (second compound 10 µM) was > 10 µM and the viability, T/C [1] was 100%. The viability, T/C [2] was 99.5%, the viability, T/C [3] was 96.6% and the viability, T/C [4] was 92.1%. For the same compound, the viability, T/C [21] was 78.4%, the viability, T/C [22] was 59% and the viability, T/C [5] was 98.8%. The viability, T/C [6] was 99.2%, the viability, T/C [7] was 96.7% and the viability, T/C [8] was 92%. For the same compound, the viability, T/C [23] was 80.1%, the viability, T/C [24] was 58.3% and the viability, T/C [9] was 100%. For the same compound, the viability, T/C [10] was 100%, the viability, T/C [11] was 98.6% and the viability, T/C [12] was 93.9%. It also gave a viability, T/C [25] of 78.4%, a viability, T/C [26] of 60% and a viability, T/C [13] of 95.1%. The viability, T/C [14] was 98.1%, the viability, T/C [15] was 95.4% and the viability, T/C [16] was 88%. It also gave a viability, T/C [27] of 73.9%, a viability, T/C [28] of 58.8% and a viability, T/C [17] of 96.1%. It also gave a viability, T/C [18] of 97.2%, a viability, T/C [19] of 93% and a viability, T/C [20] of 85.2%. The viability, T/C [29] was 74.5% and the viability, T/C [30] was 60.8%.
For `COc1ccc([C@@H](O)c2cc(-c3ncnc4cc(N5CCOCC5)ccc34)c(F)cc2Cl)nn1` + Cc1ccccc1N=Nc1ccc(NC(=O)c2ccnn2C)c(C)c1, the IC50 (second compound 0.1 µM) was 5.52 µM, the IC50 (second compound 0.316 µM) was 4.75 µM and the IC50 (second compound 1 µM) was > 10 µM. The IC50 (second compound 3.16 µM) was 5.11 µM, the IC50 (second compound 10 µM) was 4.4 µM and the viability, T/C [1] was 107%. For the same compound, the viability, T/C [2] was 104%, the viability, T/C [3] was 102% and the viability, T/C [4] was 78.2%. The viability, T/C [21] was 59.4%, the viability, T/C [22] was 41.3% and the viability, T/C [5] was 104%. The viability, T/C [6] was 97.2%, the viability, T/C [7] was 100% and the viability, T/C [8] was 78%. For the same compound, the viability, T/C [23] was 55.8%, the viability, T/C [24] was 41.2% and the viability, T/C [9] was 112%. The viability, T/C [10] was 106%, the viability, T/C [11] was 110% and the viability, T/C [12] was 75.5%. The viability, T/C [25] was 56.4%, the viability, T/C [26] was 47.1% and the viability, T/C [13] was 89.1%. It also gave a viability, T/C [14] of 95%, a viability, T/C [15] of 89.1% and a viability, T/C [16] of 74.6%. It also gave a viability, T/C [27] of 56.8%, a viability, T/C [28] of 41.5% and a viability, T/C [17] of 97.8%. For the same compound, the viability, T/C [18] was 93.4%, the viability, T/C [19] was 87.3% and the viability, T/C [20] was 76.9%. For the same compound, the viability, T/C [29] was 50.4% and the viability, T/C [30] was 44.8%.
In the case of `Nc1ncn(C2CC(O)C(CO)S2)c(=O)n1` (stereo not given) + Cc1ccccc1N=Nc1ccc(NC(=O)c2ccnn2C)c(C)c1, the IC50 (second compound 0.1 µM) is reported as > 0.3 µM, the IC50 (second compound 0.316 µM) is reported as > 0.3 µM and the IC50 (second compound 1 µM) is reported as > 0.3 µM. For the same compound, the IC50 (second compound 3.16 µM) was > 0.3 µM, the IC50 (second compound 10 µM) was > 0.3 µM and the viability, T/C (second compound 0.1 µM, first compound 0.000949 µM) was 105%. The viability, T/C (second compound 0.1 µM, first compound 0.003 µM) was 106%, the viability, T/C [31] was 115% and the viability, T/C [32] was 97%. For the same compound, the viability, T/C [33] was 77.8%, the viability, T/C [34] was 69.5% and the viability, T/C (second compound 0.316 µM, first compound 0.000949 µM) was 93.6%. For the same compound, the viability, T/C (second compound 0.316 µM, first compound 0.003 µM) was 111%, the viability, T/C [35] was 100% and the viability, T/C [36] was 95.9%. For the same compound, the viability, T/C [37] was 78.8%, the viability, T/C [38] was 63.4% and the viability, T/C (second compound 1 µM, first compound 0.000949 µM) was 99.5%. For the same compound, the viability, T/C (second compound 1 µM, first compound 0.003 µM) was 106%, the viability, T/C [39] was 99.9% and the viability, T/C [40] was 91.5%. For the same compound, the viability, T/C [41] was 102%, the viability, T/C [42] was 64.5% and the viability, T/C (second compound 3.16 µM, first compound 0.000949 µM) was 87.1%. It also gave a viability, T/C (second compound 3.16 µM, first compound 0.003 µM) of 101%, a viability, T/C [43] of 88.1% and a viability, T/C [44] of 90.6%. For the same compound, the viability, T/C [45] was 76.8%, the viability, T/C [46] was 65.7% and the viability, T/C (second compound 10 µM, first compound 0.000949 µM) was 90%. For the same compound, the viability, T/C (second compound 10 µM, first compound 0.003 µM) was 95.2%, the viability, T/C [47] was 84.1% and the viability, T/C [48] was 80.1%. The viability, T/C [49] was 83.1% and the viability, T/C [50] was 68%.
With `O=C(C=Cn1cnc(-c2cc(C(F)(F)F)cc(C(F)(F)F)c2)n1)NNc1cnccn1` + Cc1ccccc1N=Nc1ccc(NC(=O)c2ccnn2C)c(C)c1 the IC50 (second compound 0.1 µM) was > 3 µM, the IC50 (second compound 0.316 µM) was 1.75 µM and the IC50 (second compound 1 µM) was > 3 µM. The IC50 (second compound 3.16 µM) was > 3 µM, the IC50 (second compound 10 µM) was > 3 µM and the viability, T/C [31] was 100%. It also gave a viability, T/C [32] of 99.8%, a viability, T/C [33] of 80.3% and a viability, T/C [34] of 78.5%. For the same compound, the viability, T/C (second compound 0.1 µM, first compound 0.949 µM) was 72.5%, the viability, T/C (second compound 0.1 µM, first compound 3 µM) was 54.4% and the viability, T/C [35] was 106%. For the same compound, the viability, T/C [36] was 92.7%, the viability, T/C [37] was 91% and the viability, T/C [38] was 73.3%. The viability, T/C (second compound 0.316 µM, first compound 0.949 µM) was 60.7%, the viability, T/C (second compound 0.316 µM, first compound 3 µM) was 40.8% and the viability, T/C [39] was 93%. The viability, T/C [40] was 93.4%, the viability, T/C [41] was 85.5% and the viability, T/C [42] was 84.4%. The viability, T/C (second compound 1 µM, first compound 0.949 µM) was 72.5%, the viability, T/C (second compound 1 µM, first compound 3 µM) was 49.7% and the viability, T/C [43] was 80.3%. It also gave a viability, T/C [44] of 87.7%, a viability, T/C [45] of 79.8% and a viability, T/C [46] of 68.4%. The viability, T/C (second compound 3.16 µM, first compound 0.949 µM) was 72.2%, the viability, T/C (second compound 3.16 µM, first compound 3 µM) was 60.4% and the viability, T/C [47] was 81.1%. The viability, T/C [48] was 81.6%, the viability, T/C [49] was 82.7% and the viability, T/C [50] was 82.4%. It also gave a viability, T/C (second compound 10 µM, first compound 0.949 µM) of 71.9% and a viability, T/C (second compound 10 µM, first compound 3 µM) of 56.9%.
